{"source": "patent US20230212131A1", "about": "“COLLAGEN 1 TRANSLATION INHIBITORS AND METHODS OF USE THEREOF” (Anima Biotech Inc., priority 2020, published 2023)", "data": [{"system": "collagen 1 (COL1)", "test": "WI-38 collagen 1 inhibition assay", "format": "cell-based, human", "conditions": "Cellular EC50, WI-38 cells; values are classes of LogEC50", "procedure,_shortened": "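WI-38 fibroblasts serum-starved (0.25% FBS 2 h, then none 24 h), then given a collagen induction cocktail together with compound. Cells fixed, immunostained for collagen I with DAPI counterstain, and imaged at 20×; per-cell fluorescence quantified by image analysis.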", "values": [{"smiles": "CN1CCC[C@H]1C(=O)N1CCN(c2ccc(C(=O)Nc3nc(-c4ccccc4Cl)cs3)nc2)CC1", "note": "[Compound 466, N-(4-(2-chlorophenyl)thiazol-2-yl)-5-(4-(methylprolyl)piperazin-1-yl)picolinamide]", "COL1 Efficacy (LogEC50)": "+++ (+++: <−6)"}, {"smiles": "O=C(Nc1nc(-c2ccccc2Cl)cs1)C1CN(C2CCOCC2)C1", "note": "[compound 363, N-[4-(2-chlorophenyl)thiazol-2-yl]-1-tetrahydropyran-4-yl-azetidine-3-carboxamide]", "COL1 Efficacy (LogEC50)": "++ (++: −5 to −6)"}, {"smiles": "Cc1cc(N2CCOCC2)ccc1C(=O)Nc1nc(-c2ccccc2Cl)cs1", "note": "[Compound 410, N-(4-(2-chlorophenyl)thiazol-2-yl)-2-methyl-4-morpholinobenzamide]", "COL1 Efficacy (LogEC50)": "+++ (+++: <−6)"}, {"smiles": "CS(=O)(=O)N1CCN(C2CCC(C(=O)Nc3nc(-c4ccccc4Cl)cs3)CC2)CC1", "note": "(single isomer, unassigned) [Compound 435, (1r,4r)-N-(4-(2-chlorophenyl)thiazol-2-yl)-4-(4-(methylsulfonyl)piperazin-1-yl)cyclohexane-1-carboxamide]", "COL1 Efficacy (LogEC50)": "++ (++: −5 to −6)"}, {"smiles": "COCC(=O)N1CC2(C1)CN(c1ccc(C(=O)Nc3nc(-c4ccccc4Cl)cs3)nc1)C2", "note": "[Compound 450, N-(4-(2-chlorophenyl)thiazol-2-yl)-5-(6-(2-methoxyacetyl)-2,6-diazaspiro[3.3]heptan-2-yl)picolinamide]", "COL1 Efficacy (LogEC50)": "+++ (+++: <−6)"}, {"smiles": "COCCOc1ccccc1-c1csc(NC(=O)c2ccc(C)nc2)n1", "note": "[Compound 341, N-[4-[2-(2-methoxyethoxy)phenyl]thiazol-2-yl]-6-methyl-pyridine-3-carboxamide]", "COL1 Efficacy (LogEC50)": "++ (++: −5 to −6)"}, {"smiles": "O=C(Nc1nc(-c2ccccc2Cl)cs1)c1ccc(N2CCCC2=O)cn1", "note": "[compound 465]", "COL1 Efficacy (LogEC50)": "− (−: inactive)"}, {"smiles": "CC(=O)N1CCN(c2ccc(C(=O)Nc3nc(-c4cccnc4CO)cs3)nc2)CC1", "note": "[compound 472, 5-(4-acetylpiperazin-1-yl)-N-(4-(2-(hydroxymethyl)pyridin-3-yl)thiazol-2-yl)picolinamide]", "COL1 Efficacy (LogEC50)": "++ (++: −5 to −6)"}, {"smiles": "O=C(Nc1nc(-c2ccccc2Cl)cs1)c1ccc(N2CCNCC2)cc1", "note": "[Compound 334, N-(4-(2-chlorophenyl)thiazol-2-yl)-4-(piperazin-1-yl)benzamide]", "COL1 Efficacy (LogEC50)": "+++ (+++: <−6)"}, {"smiles": "COc1ccc(C(=O)Nc2nc(-c3cncnc3C)cs2)cc1", "note": "[Compound 335, 4-methoxy-N-[4-(4-methylpyrimidin-5-yl)thiazol-2-yl]benzamide]", "COL1 Efficacy (LogEC50)": "+ (+: >−5)"}, {"smiles": "CN(C(=O)c1ccc(N2CCOCC2)cn1)c1nc(-c2ccccc2Cl)cs1", "note": "[Compound 400, N-(4-(2-chlorophenyl)thiazol-2-yl)-N-methyl-5-morpholinopicolinamide]", "COL1 Efficacy (LogEC50)": "++ (++: −5 to −6)"}, {"smiles": "CS(=O)(=O)N1CCC(Oc2ccc(C(=O)Nc3nc(-c4ccccc4Cl)cs3)nc2)CC1", "note": "[compound 438, N-(4-(2-chlorophenyl)thiazol-2-yl)-5-((1-(methylsulfonyl)piperidin-4-yl)oxy)picolinamide]", "COL1 Efficacy (LogEC50)": "+++ (+++: <−6)"}, {"smiles": "O=C(Nc1nc(-c2ccccc2Cl)cs1)[C@H]1C[C@H](N2CCOCC2)C1", "note": "[compound 422, (1r,3r)-N-(4-(2-chlorophenyl)thiazol-2-yl)-3-morpholinocyclobutane-1-carboxamide]", "COL1 Efficacy (LogEC50)": "++ (++: −5 to −6)"}, {"smiles": "CC(=O)NCc1ccccc1-c1csc(NC(=O)c2ccc(N3CCN(S(C)(=O)=O)CC3)cn2)n1", "note": "[compound 480]", "COL1 Efficacy (LogEC50)": "− (−: inactive)"}, {"smiles": "Cc1ncccc1-c1csc(NC(=O)c2cnc(N3CCOCC3)cn2)n1", "note": "[compound 372, N-[4-(2-methyl-3-pyridyl)thiazol-2-yl]-5-morpholino-pyrazine-2-carboxamide]", "COL1 Efficacy (LogEC50)": "+ (+: >−5)"}, {"smiles": "COc1cccc(-c2csc(NC(=O)c3ccc(N4CCOCC4)cc3)n2)c1", "note": "[compound 357, N-[4-(3-methoxyphenyl)thiazol-2-yl]-4-morpholino-benzamide]", "COL1 Efficacy (LogEC50)": "+ (+: >−5)"}, {"smiles": "COc1ccc(C(=O)Nc2nc(-c3cccc4c3OCCO4)cs2)cc1", "note": "[Compound 337, N-[4-(2,3-dihydro-1,4-benzodioxin-5-yl)thiazol-2-yl]-4-methoxy-benzamide]", "COL1 Efficacy (LogEC50)": "++ (++: −5 to −6)"}, {"smiles": "O=C(Nc1nc(-c2ccccc2Cl)co1)c1ccc(N2CCOCC2)cc1", "note": "[Compound 368, N-[4-(2-chlorophenyl)oxazol-2-yl]-4-morpholino-benzamide]", "COL1 Efficacy (LogEC50)": "++ (++: −5 to −6)"}, {"smiles": "COCc1ncccc1-c1csc(NC(=O)c2ccc(N3CCN(C(C)=O)CC3)cn2)n1", "note": "[compound 471, 5-(4-acetylpiperazin-1-yl)-N-(4-(2-(methoxymethyl)pyridin-3-yl)thiazol-2-yl)picolinamide]", "COL1 Efficacy (LogEC50)": "+++ (+++: <−6)"}, {"smiles": "O=C(Nc1nc(-c2ccccc2Cl)cs1)c1ccc(N2CCOCC2)cn1", "note": "[compound 339, N-[4-(2-chlorophenyl)thiazol-2-yl]-5-morpholino-pyridine-2-carboxamide]", "COL1 Efficacy (LogEC50)": "+++ (+++: <−6)"}, {"smiles": "CN1CCN(C(=O)c2ccc(C(=O)Nc3nc(-c4ccccc4Cl)cs3)nc2)CC1", "note": "[compound 437, N-(4-(2-chlorophenyl)thiazol-2-yl)-5-(4-methylpiperazine-1-carbonyl)picolinamide]", "COL1 Efficacy (LogEC50)": "++ (++: −5 to −6)"}, {"smiles": "COCCN1CCN(c2ccc(C(=O)Nc3nc(-c4ccccc4Cl)cs3)cc2)CC1", "note": "[Compound 377, N-(4-(2-chlorophenyl)thiazol-2-yl)-4-(4-(2-methoxyethyl)piperazin-1-yl)benzamide]", "COL1 Efficacy (LogEC50)": "+++ (+++: <−6)"}, {"smiles": "COCc1ccccc1-c1csc(NC(=O)c2ccc(N3CCN(C(C)=O)CC3)cn2)n1", "note": "[compound 469, 5-(4-acetylpiperazin-1-yl)-N-(4-(2-(methoxymethyl)phenyl)thiazol-2-yl)picolinamide]", "COL1 Efficacy (LogEC50)": "+++ (+++: <−6)"}, {"smiles": "CN(C)C(=O)c1ccc(C(=O)Nc2nc(-c3ccccc3Cl)cs2)cc1", "note": "[compound 389, N′-(4-(2-chlorophenyl)thiazol-2-yl)-N,N-dimethylterephthalamide]", "COL1 Efficacy (LogEC50)": "++ (++: −5 to −6)"}, {"smiles": "Cc1ccc(C(=O)Nc2nc(-c3ccccc3Cl)cs2)cn1", "note": "[compound 318, N-[4-(2-chlorophenyl)thiazol-2-yl]-6-methyl-pyridine-3-carboxamide]", "COL1 Efficacy (LogEC50)": "+++ (+++: <−6)"}, {"smiles": "COc1ncc(C(=O)Nc2nc(-c3cccnc3C)cs2)cn1", "note": "[compound 355, 2-methoxy-N-[4-(2-methyl-3-pyridyl)thiazol-2-yl]pyrimidine-5-carboxamide]", "COL1 Efficacy (LogEC50)": "− (−: inactive)"}, {"smiles": "CS(=O)(=O)N1CCN(C(=O)[C@H]2C[C@H](C(=O)Nc3nc(-c4ccccc4Cl)cs3)C2)CC1", "note": "[Compound 430, (1r,3r)-N-(4-(2-chlorophenyl)thiazol-2-yl)-3-(4-(methylsulfonyl)piperazine-1-carbonyl)cyclobutane-1-carboxamide]", "COL1 Efficacy (LogEC50)": "+ (+: >−5)"}, {"smiles": "CN1CCC[C@H](C(=O)N2CCN(c3ccc(C(=O)Nc4nc(-c5ccccc5Cl)cs4)nc3)CC2)C1", "note": "[Compound 486, (S)—N-(4-(2-chlorophenyl)thiazol-2-yl)-5-(4-(1-methylpiperidine-3-carbonyl)piperazin-1-yl)picolinamide]", "COL1 Efficacy (LogEC50)": "+++ (+++: <−6)"}, {"smiles": "Cc1ncccc1-c1csc(NC(=O)c2ccc(N3CCOCC3)nn2)n1", "note": "[compound 373, N-[4-(2-methyl-3-pyridyl)thiazol-2-yl]-6-morpholino-pyridazine-3-carboxamide]", "COL1 Efficacy (LogEC50)": "+ (+: >−5)"}, {"smiles": "COc1ncccc1-c1csc(NC(=O)c2ccc(C)nc2)n1", "note": "[Compound 319, N-[4-(2-methoxy-3-pyridyl)thiazol-2-yl]-6-methyl-pyridine-3-carboxamide]", "COL1 Efficacy (LogEC50)": "++ (++: −5 to −6)"}, {"smiles": "COc1ncc(C(=O)Nc2nc(-c3ccccc3Cl)cs2)cn1", "note": "[compound 345, N-[4-(2-chlorophenyl)thiazol-2-yl]-2-methoxy-pyrimidine-5-carboxamide]", "COL1 Efficacy (LogEC50)": "+++ (+++: <−6)"}, {"smiles": "COc1cnc(C(=O)Nc2nc(-c3ccccc3Cl)cs2)cn1", "note": "[compound 330, N-[4-(2-chlorophenyl)thiazol-2-yl]-5-methoxy-pyrazine-2-carboxamide]", "COL1 Efficacy (LogEC50)": "++ (++: −5 to −6)"}, {"smiles": "O=C(Nc1nc(-c2ccccc2Cl)cs1)c1ccc(N2CCC3(CC2)COC3)cn1", "note": "[Compound 448, N-(4-(2-chlorophenyl)thiazol-2-yl)-5-(2-oxa-7-azaspiro[3.5]nonan-7-yl)picolinamide]", "COL1 Efficacy (LogEC50)": "+++ (+++: <−6)"}, {"smiles": "O=C(Nc1nc(-c2ccccc2Cl)cs1)c1ccc(N2CCN3CCCC3C2)cn1", "note": "(stereo not shown) [compound 461, N-(4-(2-chlorophenyl)thiazol-2-yl)-5-(hexahydropyrrolo[1,2-a]pyrazin-2(1H)-yl)picolinamide]", "COL1 Efficacy (LogEC50)": "+++ (+++: <−6)"}, {"smiles": "O=C(Nc1nc(-c2ccccc2Cl)cs1)N1CCC(N2CCOCC2)CC1", "note": "[compound 360, N-[4-(2-chlorophenyl)thiazol-2-yl]-4-morpholino-piperidine-1-carboxamide]", "COL1 Efficacy (LogEC50)": "+ (+: >−5)"}, {"smiles": "O=C(Nc1nc(-c2ccccc2Cl)cs1)C1CCC(N2CCOCC2)CC1", "note": "(stereo not shown) [compound 432]", "COL1 Efficacy (LogEC50)": "− (−: inactive)"}, {"smiles": "COCCOc1ccccc1-c1csc(NC(=O)c2ccc(N3CCOCC3)cc2)n1", "note": "[Compound 378, N-(4-(2-(2-methoxyethoxy)phenyl)thiazol-2-yl)-4-morpholinobenzamide]", "COL1 Efficacy (LogEC50)": "+ (+: >−5)"}, {"smiles": "O=C(Nc1nc(-c2ccc(Cl)cc2Cl)cs1)c1ccc(F)cc1", "note": "[Compound 308, N-(4-(2,4-dichlorophenyl)thiazol-2-yl)-4-fluorobenzamide]", "COL1 Efficacy (LogEC50)": "++ (++: −5 to −6)"}, {"smiles": "COc1cc(N2CCOCC2)ccc1C(=O)Nc1nc(-c2ccccc2Cl)cs1", "note": "[Compound 441, N-(4-(2-chlorophenyl)thiazol-2-yl)-2-methoxy-4-morpholinobenzamide]", "COL1 Efficacy (LogEC50)": "++ (++: −5 to −6)"}, {"smiles": "O=C(Nc1nc(-c2ccccc2Cl)cs1)c1ccc(C2CCS(=O)(=O)CC2)cn1", "note": "[Compound 383, N-(4-(2-chlorophenyl)thiazol-2-yl)-5-(1,1-dioxidotetrahydro-2H-thiopyran-4-yl)picolinamide]", "COL1 Efficacy (LogEC50)": "+++ (+++: <−6)"}]}]}
